Reference: patent US11229618B2 (Amarin Pharmaceuticals Ireland Limited, priority 2012, dated 2022)

Key:
[1] = Cross-study analysis of trough EPA concentrations in plasma and RBCs (Phase 1 PK, MARINE, ANCHOR); format: in vivo, human
Procedure: The objective of this Example is to examine the effects of high-purity ethyl eicosapentaenoate (“IPE”) on EPA concentrations in plasma and RBCs in response to dose and the relationship to triglyceride (“TG”) lowering across 3 clinical studies.
MARINE and ANCHOR were 12-week, phase 3, double-blind studies that randomized patients to IPE 4 g/day, 2 g/day, or placebo. MARINE randomized 229 patients with TG≥500 and ≤2000 mg/dL while ANCHOR randomized 702 high-risk patients with TG≥200 and ≤500 mg/dL despite LDL-C control while on statin therapy. IPE 4 g/day and 2 g/day were also investigated in 48 healthy subjects for 4 weeks in a phase 1 pharmacokinetic (“PK”) study. […]
In the MARINE and ANCHOR studies, the trough EPA concentrations were measured after 12 weeks of dosing with placebo, 2 g/day or 4 g/day IPE
In the Phase 1 PK study, the trough EPA concentrations were measured after 28 days of dosing with 2 or 4 g/day IPE (there was no placebo group; a value of zero is used in plots as a point of reference)
EPA concentrations were measured with a validated LC-MS/MS method in plasma and in RBCs in all 3 studies […]
Quantitation utilized linolenic acid as an internal standard and EPA as the standard for the calibration curve; for total plasma EPA and total RBC EPA, the lower limits of quantitation were 10 μg/mL and 5 μg/mL, respectively

[2] = Phase 1 multidose pharmacokinetic study: unesterified EPA in plasma (LC-MS/MS); format: in vivo, human; details: for Unesterified EPA in plasma, CL/F: day 28
Procedure: A study to characterize the pharmacokinetics of ethyl eicosapentaenoate in plasma and red blood cells after multiple-dose administration of IPE at 2 g per day and 4 g per day was performed in healthy adult male and female humans.
The study was a phase 1, open-label, randomized, multidose study in healthy, nonsmoking men and women aged>18 and ≤55 years with a body mass index (BMI)>18 and ≤30 kg/m′. Exclusion criteria included use within 6 weeks prior to randomization through study end of any lipid-altering medications or supplements, including statins, niacin at levels of greater than 200 mg/day, fibrates, ezetimibe, bile acid sequestrants, omega-3 fatty acid medications, and supplements or foods enriched with omega-3 fatty acids (no more than 2 servings of fish per week were permitted).
Following a 14-day screening period, subjects entered a 28-day treatment period and were randomized to one of four IPE dose regimen treatment groups as shown in FIG. 1. Group 1 received IPE 2 g daily (1000-mg capsules; twice-daily [BID] regimen); Group 2 received IPE 4 g daily (1000-mg capsules; BID regimen); Group 3 received IPE 2 g daily (1000-mg capsules; once-daily [QD] regimen); and Group 4 received IPE 2 g daily (500-mg capsules; BID regimen). Treatment was administered orally, with or following a meal in the morning and evening for BID regimens, or in the morning only for the QD regimen. Subjects then entered an 18-day post-treatment pharmacokinetic sampling period.
Fasting EPA concentrations were measured with a validated liquid chromatography with tandem mass spectrometry (LC-MS/MS) method in plasma and RBCs prior to the morning dose (days 1, 14, 26, 28) and at serial time points (1, 3, 5, 6, 8, 10, 12, 24, 48, 72, 120, 192, 312, and 432 hours) after the morning dose on day 28. After the last dose on day 28, EPA concentrations were followed for 18 days to estimate the expected long half-life of EPA. Total plasma EPA included all EPA forms (unesterified EPA and that incorporated in phospholipids, triacylglycerols, and cholesteryl esters). In RBCs, EPA was measured in the cell membrane, where EPA is mainly incorporated in phospholipids.
For total EPA in plasma and RBCs, lipids were isolated by acid/methanol/chloroform extraction followed by centrifugation and purified by isohexane and solid-phase extraction after confirmed complete lipid hydrolysis and transmethylation (acid/methanol, 50° C. overnight). For unesterified EPA in plasma, 25 μL of an inhibitor solution (0.5 g sodium fluoride, 1.0 g L-ascorbic acid, and 0.25 g 5-methylisoxazole-3-carboxylic acid per 10 mL water) was included per 1 mL plasma sample to prevent degradation and lipids were isolated by centrifugation after methanol/chloroform extraction (without hydrolysis or methylation) and further purified by protein precipitation and solid-phase extraction. Quantitation utilized linolenic acid as an internal standard and EPA as the standard for the calibration curve; for total plasma EPA, RBC EPA, and unesterified EPA, the lower limits of quantitation were 10 μg/mL, 5 μg/mL, and 50 ng/mL, respectively. EPA concentrations were measured at Charles River Laboratories Ltd (Elphinstone Research Center, Tranent, Edinburgh, Scotland, UK).
Unless otherwise specified, all reported parameters are based on baseline-subtracted concentrations (baseline is due to EPA derived from dietary sources).

[3] = about 2 g orally twice per day, human

**Q.** Which results are given for `CC/C=C\C/C=C\C/C=C\C/C=C\C/C=C\CCCC(=O)OCC` [IPE, all-cis eicosa-5,8,11,14,17-pentaenoic acid ethyl ester]?
**A.** dose dependence of plasma and RBC EPA levels ([1]; 2 and 4 g/day groups, all 3 studies): linear with dose; effect of demographic factors, baseline TG levels and concomitant medications on EPA concentrations in plasma and RBCs ([1]; MARINE and ANCHOR): did not affect the increase in EPA concentrations; Unesterified EPA in plasma, CL/F ([2]; Group 1: IPE 2 g/d 1 × 1000 mg BID): 364,513 mL/hr; Unesterified EPA in plasma, CL/F ([2]; Group 2: IPE 4 g/d 2 × 1000 mg BID): 234,329 mL/hr; Unesterified EPA in plasma, CL/F ([2]; Group 3: IPE 2 g/d 2 × 1000 mg QD): 241,855 mL/hr; Unesterified EPA in plasma, CL/F ([2]; Group 4: IPE 2 g/d 2 × 500 mg BID): 326,622 mL/hr; mean plasma CL/F of unesterified eicosapentaenoic acid ([2]; about 1 g orally twice per day, human): about 364,513+/−214,003 mL/h; mean plasma AUC0-24h of unesterified eicosapentaenoic acid [2, 3]: about 18.4+/−4.6 μg·h/mL; mean plasma CL/F of unesterified eicosapentaenoic acid [2, 3]: about 234,329+/−81,639 mL/h; mean plasma Calm of unesterified eicosapentaenoic acid [2, 3]: about 1.06+/−0.56 μg/mL; mean plasma Cmax of unesterified eicosapentaenoic acid [2, 3]: about 1.4+/−0.41 μg/mL; mean plasma T1/2 of unesterified eicosapentaenoic acid [2, 3]: about 97.2+/−36.5 hours; median plasma Tmax of unesterified eicosapentaenoic acid [2, 3]: about 5 hours
